Experimental data: patent US20230248776A1, “OSTEOBLASTS DIFFERENTIATED FROM MESENCHYMAL STEM CELLS AND COMPOSITION FOR TREATING BONE DISEASE COMPRISING SAME” (CEFO Co., Ltd., priority 2020, published 2023)

Test system: umbilical cord-derived mesenchymal stem cells
Assay: surfactant cytotoxicity and cell growth, CCK-8 in transwell
Type: cell-based
Procedure: The toxicity of poloxamer (poloxamer 407, p407), sodium methyl cocoyl taurate (DIAPON K-SF), polyoxyethylene sorbitan monolaurate (Tween 20) or methylprednisolone, which are known as representative biocompatible surfactants, was confirmed.
Specifically, in the upper chamber in a transwell including a three-dimensional porous membrane, the surfactant p407, DIAPON K-SF or Tween 20 was respectively treated at 0, 0.5 1, 5 or 15% (v/v) and coated for 2 hours in the same manner as in [Example 2], and then, the umbilical cord-derived mesenchymal stem cells obtained in [Example 1] were seeded at 20,000 cells/cm^2. The cell growth medium was placed in the lower chamber and cultured for 3 days. On days 1, 2 and 3, the CCK-8 (Cat. CK04, DOJINDO) solution was added, and after 3 hours of reaction in a 37° C. CO2 incubator, absorbance was measured at 450 nm to analyze cytotoxicity (FIG. 4) and the degree of cell growth (FIG. 5).
Further, in a transwell including a three-dimensional porous membrane, the surfactant p407, methylprednisolone or Tween 20 was treated at a concentration of 4 mM in the upper chamber, and after coating for 2 hours in the same manner as in [Example 2], the umbilical cord-derived mesenchymal stem cells obtained in [Example 1] were seeded at 20,000 cell/cm^2. The cell growth medium was placed in the lower chamber and cultured for 3 days. On days 1, 2 and 3, the CCK-8 solution was added, and after 3 hours of reaction in a 37° C. CO2 incubator, absorbance was measured at 450 nm to analyze cytotoxicity (FIG. 6) and the degree of cell growth (FIG. 7).

C[C@H]1C[C@@H]2[C@H]([C@@H](O)C[C@@]3(C)[C@H]2CC[C@]3(O)C(=O)CO)[C@@]2(C)C=CC(=O)C=C12 [methylprednisolone]
cell proliferation, CCK-8 day 1 to day 3 (surfactant 4 mM coating (FIG. 7)): cells did not proliferate | cytotoxicity, CCK-8 day 1 (surfactant 4 mM coating, day 1 (FIG. 6)): toxic to cells

sodium methyl cocoyl taurate [DIAPON K-SF]
cell proliferation, CCK-8 day 1 to day 3 (surfactant 0, 0.5, 1, 5 or 15% (v/v) coating (FIG. 5)): cells did not proliferate | cytotoxicity, CCK-8 day 1 (surfactant 0, 0.5, 1, 5 or 15% (v/v) coating, day 1 (FIG. 4)): toxic to cells
